Five compounds from patent JPH10251228A, “ニューロキニンアンタゴニストとしてのピペリジン誘導体” (Schering Plough Corp, priority 1997, dated 1998) can be followed below.

Each structure is given as a SMILES string. Read-outs that look alike come from different tables or passages of the source.

Test [1] concerns the target T1, human NK-1 receptor (ヒトNK-1レセプター) (Homo sapiens, UniProt P25103).
T1 construct: expressed in transfected cells; host or cells: Chinese hamster ovary (CHO) cells, G418-selected; membranes prepared
Description: Neurokinin receptor binding assay, human NK1 ([3H]-substance P displacement, transfected CHO cell membranes).

Test [2] deals with T2, human NK-2 receptor (ヒトNK-2レセプター) (Homo sapiens, UniProt P21452).
T2 construct: expressed in transfected cells; host or cells: Chinese hamster ovary (CHO) cells, G418-selected; membranes prepared
T2 sequence (P21452 1-398): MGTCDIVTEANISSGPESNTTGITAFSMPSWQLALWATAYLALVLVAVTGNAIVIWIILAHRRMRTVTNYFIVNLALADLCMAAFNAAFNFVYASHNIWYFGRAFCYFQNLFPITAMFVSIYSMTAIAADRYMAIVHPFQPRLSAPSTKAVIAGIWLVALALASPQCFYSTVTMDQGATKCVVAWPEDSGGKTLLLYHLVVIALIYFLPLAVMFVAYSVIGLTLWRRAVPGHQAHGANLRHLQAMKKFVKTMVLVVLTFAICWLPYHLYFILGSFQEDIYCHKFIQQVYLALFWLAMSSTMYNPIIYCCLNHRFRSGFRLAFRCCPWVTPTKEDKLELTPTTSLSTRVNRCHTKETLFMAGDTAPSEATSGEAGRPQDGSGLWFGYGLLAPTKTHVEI
Description: Neurokinin receptor binding assay, human NK2 ([3H]-neurokinin A displacement, transfected CHO cell membranes).

Where [3] appears, read: neurokinin receptor binding assay, [3H]-neurokinin A 1.0 nM, CHO membranes, Cheng-Prusoff, read-out: NK2 Ki (binding).

T1 sequence (P25103 whole entry): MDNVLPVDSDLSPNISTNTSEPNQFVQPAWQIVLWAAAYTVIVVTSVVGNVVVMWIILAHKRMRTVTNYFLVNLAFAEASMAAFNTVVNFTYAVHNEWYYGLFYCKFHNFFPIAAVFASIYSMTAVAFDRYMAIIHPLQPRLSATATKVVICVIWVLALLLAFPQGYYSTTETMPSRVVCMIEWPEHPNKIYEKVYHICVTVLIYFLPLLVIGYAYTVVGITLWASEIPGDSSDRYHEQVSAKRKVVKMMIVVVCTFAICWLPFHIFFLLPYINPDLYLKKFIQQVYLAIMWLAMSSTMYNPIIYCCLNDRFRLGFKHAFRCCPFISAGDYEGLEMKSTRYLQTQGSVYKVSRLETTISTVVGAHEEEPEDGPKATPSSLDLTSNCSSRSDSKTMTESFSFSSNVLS

On to `COc1ccccc1CN(C)C(=O)CC(CCN1CCC(O)(c2ccccc2)CC1)c1ccc(Cl)c(Cl)c1` (stereo not drawn) [β-(3,4-ジクロロフェニル)-4-ヒドロキシ-N-[(2-メトキシフェニル)メチル]-N-メチル-4-フェニル-1-ピペリジンペンタミド], for which the results for the inhibition constant Ki in test [1] and in test [2] were 7.5 nM and 33 nM, respectively.
Consider `COc1cccc(CN(C)C(=O)CC(CCN2CCC(O)(c3ccccc3)CC2)c2ccc(Cl)c(Cl)c2)c1` (stereo not drawn) [β-(3,4-ジクロロフェニル)-4-ヒドロキシ-N-[(3-メトキシフェニル)メチル]-N-メチル-4-フェニル-1-ピペリジンペンタミド], for which the inhibition constant (Ki) worked out at 12 nM in test [1] and 215 nM in test [2] (setting [3]).
For the compound `CN(CCc1ccccc1)C(=O)CC(CCN1CCC(O)(c2ccccc2)CC1)c1ccc(Cl)c(Cl)c1` (stereo not drawn) [β-(3,4-ジクロロフェニル)-4-ヒドロキシ-N-メチル-4-フェニル-N-(2-フェニルエチル)-1-ピペリジンペンタミド], the values for the inhibitory constant (Ki) in test [1] and in test [2] were 70 nM and 46 nM, respectively.
As for `CN(Cc1ccccc1)C(=O)CC(CCN1CCC(O)(c2ccccc2)CC1)c1ccc(Cl)c(Cl)c1` (stereo not drawn) [β-(3,4-ジクロロフェニル)-4-ヒドロキシ-N-メチル-4-フェニル-N-(フェニルメチル)-1-ピペリジンペンタミド], the Ki in test [1] was 6.8 nM; in test [2] (setting [3]) it was 108 nM.
`CN(C(=O)CC(CCN1CCC(O)(c2ccccc2)CC1)c1ccc(Cl)c(Cl)c1)c1ccccc1` (stereo not drawn) [β-(3,4-ジクロロフェニル)-4-ヒドロキシ-N-メチル-N,4-ジフェニル-1-ピペリジンペンタミド]: the inhibition constant (Ki) in test [1] (neurokinin receptor binding assay, [3H]-substance P 0.8 nM, CHO membranes, Cheng-Prusoff, read-out: NK1 Ki (binding)) stood at 150 nM; in test [2], 5.2 nM.

In general, Ki refers to the equilibrium dissociation constant of an inhibitor or competing ligand from its target.
